Measured values reported in US7585895B2, “Therapeutic substituted cyclopentanes” (Allergan, Inc., priority 2005, dated 2009).

What was measured:
Type in all cases: in vivo
[1] = Monkey intraocular pressure (Max. ΔIOP); conditions: Primates, Conc. 0.1 g/100 mL
[2] = Dog ocular hyperemia; conditions: Conc. 0.1 g/100 mL
[3] = Dog intraocular pressure (Max. ΔIOP); conditions: Canis lupus familiaris, Conc. 0.1 g/100 mL
[4] = Rabbit ocular hyperemia; conditions: Conc. 0.1 g/100 mL

DOG Max. hpyeremia [2]: 0.6
RABBIT Max. hyperemia [4]: 0.25
Compound: CCCCCCc1ccc([C@@H]2[C@@H](C/C=C\CCCC(=O)O)[C@H](Cl)C[C@H]2O)cc1 [compound 6]
change in vivo at 1000 µg/mL [1]: 32%
change in vivo at 1000 µg/mL [3]: -43%
